Target: T1, alpha-ketoglutarate dehydrogenase (kGDH) (Mus musculus, UniProt Q60597)
T1 construct: from tissue; host or cells: mouse brain, blood, tumor and other organs (crude lysates)
T1 sequence (Q60597 41-1023): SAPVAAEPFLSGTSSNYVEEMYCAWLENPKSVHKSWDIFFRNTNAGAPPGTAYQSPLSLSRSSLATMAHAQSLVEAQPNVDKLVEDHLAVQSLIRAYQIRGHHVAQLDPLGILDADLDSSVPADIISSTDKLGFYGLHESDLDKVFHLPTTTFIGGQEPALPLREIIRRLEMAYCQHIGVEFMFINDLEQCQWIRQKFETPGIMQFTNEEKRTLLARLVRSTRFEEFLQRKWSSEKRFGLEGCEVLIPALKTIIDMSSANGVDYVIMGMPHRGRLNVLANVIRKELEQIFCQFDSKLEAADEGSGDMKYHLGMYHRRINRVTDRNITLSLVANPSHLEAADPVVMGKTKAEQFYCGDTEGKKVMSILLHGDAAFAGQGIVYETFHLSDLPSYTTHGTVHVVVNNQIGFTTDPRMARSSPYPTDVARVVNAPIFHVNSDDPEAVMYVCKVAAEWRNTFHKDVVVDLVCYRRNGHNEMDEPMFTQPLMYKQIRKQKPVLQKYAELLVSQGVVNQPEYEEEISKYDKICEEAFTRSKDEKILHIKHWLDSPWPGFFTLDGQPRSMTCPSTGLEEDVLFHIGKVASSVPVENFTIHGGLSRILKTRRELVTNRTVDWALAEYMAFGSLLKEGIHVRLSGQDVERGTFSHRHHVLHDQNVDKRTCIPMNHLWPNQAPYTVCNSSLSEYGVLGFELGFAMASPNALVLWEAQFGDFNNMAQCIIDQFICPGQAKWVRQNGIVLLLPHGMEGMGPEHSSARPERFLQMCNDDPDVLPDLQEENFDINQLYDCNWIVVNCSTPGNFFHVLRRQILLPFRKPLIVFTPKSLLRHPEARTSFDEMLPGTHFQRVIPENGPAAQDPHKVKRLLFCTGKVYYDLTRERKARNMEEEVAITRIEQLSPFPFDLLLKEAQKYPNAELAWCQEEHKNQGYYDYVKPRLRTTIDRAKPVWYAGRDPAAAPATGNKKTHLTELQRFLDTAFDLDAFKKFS
T1 sequence (Q9D2G2 69-454 partner): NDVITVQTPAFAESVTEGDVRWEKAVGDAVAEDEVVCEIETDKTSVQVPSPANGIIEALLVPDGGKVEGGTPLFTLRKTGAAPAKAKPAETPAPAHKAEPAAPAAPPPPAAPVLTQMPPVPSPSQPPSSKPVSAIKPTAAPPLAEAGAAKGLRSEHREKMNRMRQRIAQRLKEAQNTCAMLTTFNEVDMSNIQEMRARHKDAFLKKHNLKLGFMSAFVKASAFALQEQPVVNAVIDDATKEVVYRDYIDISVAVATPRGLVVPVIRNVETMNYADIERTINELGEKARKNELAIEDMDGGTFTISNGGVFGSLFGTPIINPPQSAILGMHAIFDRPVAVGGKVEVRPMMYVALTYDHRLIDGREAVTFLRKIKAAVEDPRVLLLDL
T1 sequence (O08749 36-509 partner): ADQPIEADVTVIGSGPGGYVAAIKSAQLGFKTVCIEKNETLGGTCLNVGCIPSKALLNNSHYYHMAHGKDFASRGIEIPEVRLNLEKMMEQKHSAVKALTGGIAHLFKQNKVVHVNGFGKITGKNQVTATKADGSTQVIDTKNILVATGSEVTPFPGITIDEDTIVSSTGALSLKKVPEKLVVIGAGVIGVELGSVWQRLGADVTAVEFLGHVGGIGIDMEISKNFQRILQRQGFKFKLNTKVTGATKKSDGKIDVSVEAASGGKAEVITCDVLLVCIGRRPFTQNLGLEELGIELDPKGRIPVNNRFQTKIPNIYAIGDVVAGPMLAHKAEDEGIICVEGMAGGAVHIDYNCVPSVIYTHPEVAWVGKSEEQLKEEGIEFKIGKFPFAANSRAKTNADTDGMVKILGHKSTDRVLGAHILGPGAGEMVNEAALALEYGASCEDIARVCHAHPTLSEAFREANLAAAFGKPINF
Assay: alpha-ketoglutarate dehydrogenase activity in tissues of treated mice (fluorescence NADH assay)
Assay type: in vivo
Procedure: Blood samples from mice were taken (40 μl whole blood) serially or from mice sacrificed at the end of the experiment. Tissues, such as tumors (e.g. from implantation, xenograft, or arising spontaneously), brain, heart, kidney, liver, lung and spleen were taken and flash frozen in liquid nitrogen or on dry ice and stored in −80° C. until time of assay. Four volumes of cold lysis buffer (20 mM HEPES, pH 7.5, 1 mM EDTA, 0.2 g/l Triton X-100® and 0.2 g/L sodium deoxycholate, supplemented with 1 mM DTT and 1 mM PMSF just before use) were added to the blood, which was dissolved by vortexing. For blood that was frozen before coagulation, a clear lysate was obtained. If coagulation occurred, homogenization was used as described below for tissue. Tissues were suspended in lysis buffer in 10 ml round bottom tubes and homogenized with PowerGen 125® (Fisher Scientific) for four seconds at highest power while submerged in an ice-water bath. This step was repeated after a few seconds, as necessary. […]
Each reaction was monitored for the appearance of NADH (for transketolase, alpha-ketoglutarate dehydrogenase, pyruvate dehydrogenase) or NADPH (for glucose-6-phosphate dehydrogenase) at room temperature in a fluorescent plate reader with excitation at 340 nm and emission at 470 nm in kinetic mode. The velocity was determined by the slope of the initial linear range of increasing fluorescence, expressed in fluorescent units (FU)/min. The protein concentration in the lysate was determined using Bradford assays (BioRad) with BSA as a standard. […]
To investigate the amount of in vivo enzyme inhibition following treatment with an inhibitor, we administered a single dose of N3PT (100 mg/kg, intraperitoneally [i.p.]) and blood, spleen and brain samples were collected at various times from 0-120 hours after dosing. The enzymatic activities were determined as described in Example 1. TK activity was measured in blood and spleen. Because TK activity in the brain is below the detection limit of the assay, kGDH activity was measured in brain samples. […]

- kGDH activity in blood (11 days i.p. twice per day, blood): obliterated
- inhibition of brain kGDH activity (single dose 100 mg/kg i.p., 0-120 hours): No significant inhibition
SMILES: Cc1ccc(C[n+]2csc(CCO)c2C)c(N)n1 [N3PT, 3-[(2-amino-6-methyl-3-pyridinyl)methyl]-5-(2-hydroxyethyl)-4-methyl thiazolium]
- brain penetration (after a single dose 100 mg/kg i.p., inferred from brain kGDH activity): little or no significant brain penetration
